Here are results for one sequence from paper PMC11079029, “Intramolecular autoinhibition regulates the selectivity of PRPF40A tandem WW domains for proline-rich motifs” (Nature Communications, 2024).

Usually Kd stands for the equilibrium constant for the complex coming apart.

Holding throughout (assay type): binding
The target of assay [1] is T1, PRPF40A WW12 (tandem WW domains, residues 141–236) (Homo sapiens, UniProt O75400).
T1 construct: WW12 141–236, WW12long 141–248, and N-ext-WW12 56–236; 6xHis-TEV site (N, cleaved yes); made in house; host or cells: Escherichia coli BL21(DE3)
Put plainly: ITC of PRPF40A WW12 with GB1-tagged proline-rich peptides and constructs. The text has this:
(§1) PRPF40A isoform 1 sequences (N-ter 1–310, WW12short 141–223, WW12 141–236, WW12long 141–248, and N-ext-WW12 56–236) were amplified from a purchased DNA fragment (IDT) and cloned using NcoI and KpnI restriction sites into a pETM11 vector encoding 6xHis and TEV cleavage site as a N-terminal tag. SF1 (Pro A 410–468, Pro B 468–539, Pro C 539–594, Pro D 594–639, Pro BC 468–594, Pro CD 539–639, Pro BCD 468–639 and Pro ABCD 410–639) and SF3A1 (Middle Pro 364–413 and C-ter Pro 552–683) constructs were prepared in a similar manner using a pET24 vector with a 6xHis, GB1 and TEV cleavage site as N-terminal fusion cassette. 16-mer SF1 constructs (Table 1) and polyproline peptides (P6, P8, P10, P13, P16, P19, P22, P25, and P29) were cloned in the same pET24 vector with GB1 tag by direct ligation of purchased oligonucleotides (Eurofins). All peptide sequences contained N and C-terminal common residues to avoid boundary effects on binding: TEVsite-GAMSGS-peptide-SGSN. Mutants of PRPF40A WW12 and N-ext-WW12 constructs were prepared by site-directed mutagenesis. The truncated version of PRPF40A WW12 (141-217) was a gift from Dr. María Macías (IRB, Spain). All used oligonucleotides were purchased from Eurofins Genomics and are shown in Supplementary Table 6.
(§2) Resuspended cell pellets in 20 mM Tris pH 8.0, 500 mM NaCl, 10 mM imidazole, 0.5 mM TCEP, and protease inhibitors mix (SERVA) were lysed by cell disruption in a French press. Clear lysates, after centrifugation (at 18,000 g) and filtering, were loaded into Ni-NTA resin. The resin was then washed with 20 mM imidazole containing buffer, and the desired protein was eluted with 500 mM imidazole. PRPF40A constructs were then subjected to TEV protease treatment (homemade at a final concentration of ≈50 μg/ml), dialyzed overnight at 4 °C against an imidazole-free buffer, and then loaded again to Ni-NTA resin; desired digested proteins were obtained in the flow-through and wash fractions while uncleaved protein, TEV protease, and impurities remained bound to the resin. Cleaved PRPF40A proteins and GB1-tagged SF1, SF3A1, and polyproline constructs were further purified by size-exclusion chromatography on a HiLoad 16/60 Superdex 75 column (GE Healthcare) equilibrated with 20 mM sodium phosphate, pH 6.5, 100 mM NaCl and 1 mM DTT buffer. For the purification of PRPF40A WW12 in complex with SF1 peptide, cell pellets of recombinant expression for both proteins were mixed and processed together following the Ni-NTA—TEV digestion—reverse Ni-NTA—SEC-75 protocol; where the complex remained bound in a 1:1 stoichiometry throughout the whole purification (corroborated by NMR). Molecular weight of each sample was confirmed by mass spectrometry, purity was checked by PAGE-SDS, and protein concentrations were determined from the aromatic contribution to the UV absorbance spectra at 280 nm.
(§3) Experiments were conducted on a MicroCAl PEAQ-ITC (Malvern Instruments, UK) at 25 °C in 20 mM sodium phosphate pH 6.5 and 100 mM NaCl. PRPF40A was titrated into N-terminal GB1 tagged SF1 or polyproline constructs and vice versa with similar results. Protein concentrations in the cell were around 20–40 μM, while in the syringe ranged between 200 and 500 μM. Experiments were performed at least in duplicate with injections of 1.5 μL (0.4 μL for first point) separated by 150 s delays to recover thermal power baseline and continuous stirring in the cell (750 rpm) for correct mixing. The reference cell was filled with water in all experiments. Data were processed by removing the blank experiment (using digested GB1 fusion protein) and adjusted to one-site binding model with Malvern PEAQ-ITC Analysis software (Malvern Instruments, UK).

In assay [2] the target is T2, PRPF40A N-ext-WW12 (residues 56–236) (Homo sapiens, UniProt O75400).
T2 construct: WW12long 141–248, and N-ext-WW12 56–236; 6xHis-TEV site (N, cleaved yes); made in house; host or cells: Escherichia coli BL21(DE3)
T2 sequence (O75400 56-236): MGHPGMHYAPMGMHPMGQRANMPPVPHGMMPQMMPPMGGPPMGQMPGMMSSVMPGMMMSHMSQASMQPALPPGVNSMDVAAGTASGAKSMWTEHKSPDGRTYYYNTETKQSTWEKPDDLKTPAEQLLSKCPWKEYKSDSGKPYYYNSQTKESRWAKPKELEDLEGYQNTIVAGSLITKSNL
Put plainly: ITC of N-terminally extended WW12 with SF1 peptides. Conditions: for Kd: ITC.
Excerpt: as §1, §2, §3

Assay [3] addresses T3, PRPF40A Mut N-ExtWW12 (Homo sapiens, UniProt O75400, L125A/P123A/P126A/P127A/P78A/P79A/P81A/V80A).
T3 construct: WW12long 141–248, and N-ext-WW12 56–236; 6xHis-TEV site (N, cleaved yes); made in house; host or cells: Escherichia coli BL21(DE3)
T3 sequence (O75400 56-236 P78A/P79A/V80A/P81A/P123A/L125A/P126A/P127A limits assumed): T2 sequence (O75400 56-236) with P23A, P24A, V25A, P26A, P68A, L70A, P71A, P72A
Description: ITC of mutant N-ext-WW12 (PPVP/PALPP motifs changed to alanine) with SF1WWbs.
Excerpt: While only partial backbone chemical shift assignments of this construct (69% completeness), N-ext-WW12, could be possible due to a highly repetitive sequence, a complete assignment of the methyl groups was achieved. We then performed a titration with the high-affinity peptide, SF1WWbs, by NMR. […] To further support this conclusion, we prepared a mutant version of the N-ext-WW12 construct, changing these two motifs to alanine residues, and observed clear shifting of NMR signals towards the free WW12 spectrum in the short version of the tandem. This corroborates that mainly these two proline-rich motifs govern the intramolecular interacting region (Supplementary Fig. 19).
To further confirm this analysis, we titrated SF1WWbs and the mutant version of the N-ext-WW12 construct (changing the PPVP/PALPP motifs for alanine residues).
as §1, §3

Changes are numbered by the printed parent chain. Where two headings read alike, the source gives them in different places.

PPLPPGAPPPPPPPPP [SF1WWbs]: the “N (sites)” value in assay [1] (ITC as E1, peptide in the cell, WW tandem in the syringe, N >1 = more than one WW tandem per peptide) turned out to be 1.00 ± 0.03 sites; in assay [2] (ITC as E7) it was 0.88 ± 0.03 sites; in assay [3] (ITC as E10), 0.84 ± 0.05 sites. The “DH” value in assay [1] (ITC binding enthalpy, as E1) is -19.6 ± 0.406 kcal/mol; in assay [2] (ITC binding enthalpy, as E7) it was -15.8 ± 0.884 kcal/mol; in assay [3] (ITC binding enthalpy, as E10), -21 ± 2.2 kcal/mol. The “Kd (µM)” value in assay [1] (ITC, 25 °C, 20 mM sodium phosphate pH 6.5, 100 mM NaCl, GB1-tagged polyproline or SF1 16-mer peptide in the cell, WW tandem in the syringe, one-site model, apparent Kd, average of at least duplicates) is listed as “low micromolar range”; in assay [3] (ITC, 25 °C, 20 mM sodium phosphate pH 6.5, 100 mM NaCl, GB1-tagged SF1 16-mer, N-ext-WW12 with PPVP/PALPP changed to alanine, at least duplicates) it was “comparable to the isolated WW tandem”. For the same sequence, the Kd in assay [1] (ITC, SF1 peptides, individual value 1 (replicate 1), read-out: Kd Values with WW12, individual value) was 1.29 µM; in assay [1] (ITC, SF1 peptides, individual value 2 (replicate 2), read-out: Kd Values with WW12, individual value), 1.24 µM; in assay [1] (ITC, SF1 peptides, individual value 3 (replicate 3), read-out: Kd Values with WW12, individual value), 1.62 µM; in assay [1] (ITC, SF1 peptides, individual value 5 (replicate 5), read-out: Kd Values with WW12, individual value), 1.29 µM; in assay [1] (ITC, mean over the peptides of the classification group, read-out: Kd Values with WW12, averaged group), 1.4 µM; in assay [2] (25 °C, 20 mM sodium phosphate pH 6.5, 100 mM NaCl, GB1-tagged SF1 16-mer, N-terminally extended WW12, at least duplicates, listed as 575 PPLPPGAPPPPPPPPP 590, read-out: Kd), 8.71 ± 0.88 µM. Further, the Kd in assay [2] (25 °C, 20 mM sodium phosphate pH 6.5, 100 mM NaCl, GB1-tagged SF1 16-mer, N-terminally extended WW12, at least duplicates, read-out: Kd) was under 10 µM; in assay [2] (SF1 peptides, individual value 1 (replicate 1), read-out: Kd Values with Nter Ext WW12, individual value) it was 9.19 µM; in assay [2] (SF1 peptides, individual value 2 (replicate 2), read-out: Kd Values with Nter Ext WW12, individual value) it was 8.22 µM; in assay [3] (ITC, 25 °C, 20 mM sodium phosphate pH 6.5, 100 mM NaCl, GB1-tagged SF1 16-mer, N-ext-WW12 with PPVP/PALPP changed to alanine, at least duplicates, read-out: Kd), 2.21 ± 0.24 µM; in assay [3] (ITC, individual value 1 (replicate 1), read-out: Kd Values with Nter Ext WW12 MUTANT, individual value), 2.44 µM; in assay [3] (ITC, individual value 2 (replicate 2), read-out: Kd Values with Nter Ext WW12 MUTANT, individual value), 1.98 µM.
